The compounds below were run against T1, trypsin-activated recombinant human renin (Homo sapiens, UniProt P00797) (assay: Renin fluorescence assay (internally quenched peptide substrate)). Settings: compounds I*.
T1 sequence (P00797 67-406): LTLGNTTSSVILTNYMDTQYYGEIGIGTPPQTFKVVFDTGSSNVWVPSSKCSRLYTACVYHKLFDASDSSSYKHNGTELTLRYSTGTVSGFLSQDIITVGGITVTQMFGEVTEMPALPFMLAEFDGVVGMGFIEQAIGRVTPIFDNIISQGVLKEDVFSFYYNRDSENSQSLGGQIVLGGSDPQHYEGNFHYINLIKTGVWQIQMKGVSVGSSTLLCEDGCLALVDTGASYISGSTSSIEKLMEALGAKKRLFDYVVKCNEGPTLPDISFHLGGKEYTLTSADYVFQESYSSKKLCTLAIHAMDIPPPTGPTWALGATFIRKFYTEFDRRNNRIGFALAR
Type: biochemical
Outline: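 Compounds (1 nM–10 μM final, DMSO) were mixed with internally quenched angiotensinogen-sequence substrate in pH 7.0 BES/NaCl/BSA buffer, then 0.2-2 nM trypsin-activated human renin added. Rate from the linear fluorescence increase (340 nm excitation, 495 nm emission) over 60-360 min at rt, compared with uninhibited control.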

IC50 [µM]	Compound
< 0.01	CNC[C@H](CC1CCOCC1)NC(=O)N1CCCC([C@@H](OCCNC(=O)OC)c2c(C)ccc(F)c2F)C1 (stereo partly drawn) [I*-115a, methyl 2-((R)-(2,3-difluoro-6-methylphenyl)(1-((S)-1-(methylamino)-3-(tetrahydro-2H-pyran-4-yl)propan-2-ylcarbamoyl)piperidin-3-yl)methoxy)ethylcarbamate]
< 0.01	CNC[C@H](CC1CCCCC1)NC(=O)N1CCC[C@@H](C(OCCNC(=O)OC)c2cc(Cl)ccc2F)C1 (stereo partly drawn) [I*-116a, methyl 2-((5-chloro-2-fluorophenyl)((R)-1-((S)-1-cyclohexyl-3-(methylamino)propan-2-ylcarbamoyl)piperidin-3-yl)methoxy)ethylcarbamate]
< 0.001	CNC[C@H](CC1CCCCC1)NC(=O)N1CCC[C@@H]([C@@H](OCCNC(=O)OC)c2cc(Cl)ccc2F)C1 [I*-117a, methyl 2-((R)-(5-chloro-2-fluorophenyl)((R)-1-((S)-1-cyclohexyl-3-(methylamino)propan-2-ylcarbamoyl)piperidin-3-yl)methoxy)ethylcarbamate]
< 0.001	CNC[C@H](CC1CCCCC1)NC(=O)N1CCC[C@@H]([C@@H](OCCNC(=O)OC)c2ccc(F)c(Cl)c2)C1 [I*-118a, methyl 2-((R)-(3-chloro-4-fluorophenyl)((R)-1-((S)-1-cyclohexyl-3-(methylamino)propan-2-ylcarbamoyl)piperidin-3-yl)methoxy)ethylcarbamate]
< 0.01	CNC[C@H](CC1CCCCC1)NC(=O)N1CCC[C@@H]([C@@H](OCCNC(=O)OC)c2cc(F)c(F)c(F)c2)C1 [I*-119a, methyl 2-((R)-((R)-1-((S)-1-cyclohexyl-3-(methylamino)propan-2-ylcarbamoyl)piperidin-3-yl)(3,4,5-trifluorophenyl)methoxy)ethylcarbamate]
< 0.001	CNC[C@H](CC1CCC(F)(F)CC1)NC(=O)N1CCC[C@@H]([C@@H](OCCNC(=O)OC)c2cccc(F)c2)C1 [I*-120a, methyl 2-((R)—((R)-1-((S)-1-(4,4-difluorocyclohexyl)-3-(methylamino)propan-2-ylcarbamoyl)piperidin-3-yl)(3-fluorophenyl)methoxy)ethylcarbamate]
< 0.02	CNC[C@H](CC1CCOCC1)NC(=O)N1CCC[C@@H]([C@@H](OCCNC(=O)OC)c2cc(F)cc(Cl)c2)C1 [I*-121a, methyl 2-((R)-(3-chloro-5-fluorophenyl)((R)-1-((S)-1-(methylamino)-3-(tetrahydro-2H-pyran-4-yl)propan-2-ylcarbamoyl)piperidin-3-yl)methoxy)ethylcarbamate]
< 0.01	COC(=O)NCCO[C@@H](c1cc(F)cc(Cl)c1)[C@@H]1CCCN(C(=O)NC[C@@H](N)C[C@H]2CCCCOC2)C1 [I*-122a, methyl 2-((R)-((R)-1-((S)-2-amino-3-((R)-oxepan-3-yl)propylcarbamoyl)piperidin-3-yl)(3-chloro-5-fluorophenyl)methoxy)ethylcarbamate]
< 0.01	CNC[C@H](CC12CC3CC(CC1C3)C2)NC(=O)N1CCC[C@@H]([C@@H](OCCNC(=O)OC)c2cccc(F)c2)C1 [I*-123a, methyl 2-((R)-((3R)-1-((S)-1-(3-noradamantyl)-3-(methylamino)propan-2-ylcarbamoyl)piperidin-3-yl)(3-fluorophenyl)methoxy)ethylcarbamate]
< 0.02	CNC[C@H](C[C@H]1C[C@@H](F)[C@@H](F)C1)NC(=O)N1CCC[C@@H]([C@@H](OCCNC(=O)OC)c2cccc(Cl)c2)C1 [I*-124a, methyl 2-((R)-(3-chlorophenyl)((R)-1-((S)-1-((1r,3S,4R)-3,4-difluorocyclopentyl)-3-(methylamino)propan-2-ylcarbamoyl)piperidin-3-yl)methoxy)ethylcarbamate]
< 0.01	CNCC(C[C@@H]1C[C@@H](F)[C@@H](F)C1)NC(=O)N1CCC[C@@H]([C@@H](OCCNC(=O)OC)c2cccc(Cl)c2)C1 (stereo partly drawn) [I*-125a, methyl 2-((R)-(3-chlorophenyl)((R)-1-((S)-1-((1s,3R,4S)-3,4-difluorocyclopentyl)-3-(methylamino)propan-2-ylcarbamoyl)piperidin-3-yl)methoxy)ethylcarbamate]
< 0.02	CNC[C@H](CC1CCCCC1)N/C(=N\C#N)N1CCC[C@@H]([C@@H](OCCNC(=O)OC)c2cccc(Cl)c2)C1 [I*-127a, methyl 2-((R)-(3-chlorophenyl)((R)-1-(N′-cyano-N—((S)-1-cyclohexyl-3-(methylamino)propan-2-yl)carbamimidoyl)piperidin-3-yl)methoxy)ethylcarbamate]
> 0.05	CNC[C@H](CC1CCCCC1)NC(=O)N1CCC[C@@H]([C@@H](OCCNc2nccs2)c2cccc(Cl)c2)C1 [I*-128a, (R)-3-((R)-(3-chlorophenyl)(2-(thiazol-2-ylamino)ethoxy)methyl)-N-((S)-1-cyclohexyl-3-(methylamino)propan-2-yl)piperidine-1-carboxamide]
> 0.05	CNCC(CC12CCC(CC1)CC2)NC(=O)N1CCC[C@@H]([C@@H](OCCNC(=O)OC)c2cccc(Cl)c2)C1 (stereo partly drawn) [I*-129a, methyl 2-((R)-((3R)-1-(1-(bicyclo[2.2.2]octan-1-yl)-3-(methylamino)propan-2-ylcarbamoyl)piperidin-3-yl)(3-chlorophenyl)methoxy)ethylcarbamate]
< 0.02	CC[C@@H](NC)[C@H](CC1CCCCC1)NC(=O)N1CCC[C@@H]([C@@H](OCCNC(=O)OC)c2cccc(Cl)c2)C1 [I*-130a, methyl 2-((R)-(3-chlorophenyl)((R)-1-((2S,3R)-1-cyclohexyl-3-(methylamino)pentan-2-ylcarbamoyl)piperidin-3-yl)methoxy)ethylcarbamate]
> 0.05	CNC[C@H](C[C@H]1CCC(=O)N(C)C1)NC(=O)N1CCC[C@@H]([C@@H](OCCNC(=O)OC)c2cccc(Cl)c2)C1 [I*-131a, methyl 2-((R)-(3-chlorophenyl)((R)-1-((S)-1-((R)-1-methyl-6-oxopiperidin-3-yl)-3-(methylamino)propan-2-ylcarbamoyl)piperidin-3-yl)methoxy)ethylcarbamate]
> 0.05	CNCC(C[C@H]1C[C@@H](C)O[C@@H](C)C1)NC(=O)N1CCC[C@@H]([C@@H](OCCNC(=O)OC)c2cccc(Cl)c2)C1 (stereo partly drawn) [I*-132a, methyl 2-((R)-(3-chlorophenyl)((R)-1-((S)-1-((2S,4r,6R)-2,6-dimethyl-tetrahydro-2H-pyran-4-yl)-3-(methylamino)propan-2-ylcarbamoyl)piperidin-3-yl)methoxy)ethylcarbamate]
< 0.001	CN[C@H](CNC(=O)N1CCC[C@@H]([C@@H](OCCNC(=O)OC)c2cc(Cl)ccc2C)C1)C[C@H]1CCCCOC1 [I*-133a, methyl 2-((R)-(5-chloro-2-methylphenyl)((R)-1-((S)-2-(methylamino)-3-((R)-oxepan-3-yl)propylcarbamoyl)piperidin-3-yl)methoxy)ethylcarbamate]
> 0.05	CNC[C@H](CCC1(OC)CCCC1)NC(=O)N1CCC[C@@H]([C@@H](OCCNC(=O)OC)c2cc(F)cc(F)c2)C1 [I*-134a, methyl 2-((R)-(3,5-difluorophenyl)((R)-1-((S)-4-(1-methoxycyclopentyl)-1-(methylamino)butan-2-ylcarbamoyl)piperidin-3-yl)methoxy)ethylcarbamate]
